This is an account of results in patent publication US20250388604A1, “Compounds and Their Use as PDE4 Activators” (Mironid Limited, priority 2022, published 2025).

Structures are written as SMILES.

The first assay concerns m-IMCD3 cells. Put plainly: Inhibition of PGE2-stimulated in vitro cyst formation in m-IMCD3 cells. It counts as cell-based, mouse. The note with it: Mus musculus, mIMCD3, 144 h, 3 μM; mean cyst area, 100% for (DMSO + PGE2) and 0% for DMSO control; 6 days of culture; read-out: % Cyst area after incubation with 3 μM test compound. How it is done:
HEK 293 and MDCK cells (Public Health England, Cell Culture Collections) were maintained in Dulbecco's Modified Eagle's Medium (DMEM) supplemented with 10% (v/v) fetal bovine serum (FBS) (Seralab), 2 mM L-glutamine and 100 U/mL penicillin streptomycin cocktail (ThermoFisher); termed complete media. Clonal HEK 293 cell lines were maintained in complete media supplemented with 0.6 mg/ml G418 (Enzo Life Sciences). Mouse inner medullary collecting duct (m-IMCD3) cells [American Type Culture Collection (ATCC)] were maintained in media consisting of DMEM/Hams F-12 50/50 Mix (DMEM F12; Corning) supplemented with penicillin streptomycin cocktail (100 U/mL) and FBS (10% v/v) (DMEM F12-10% FBS).
The mouse Inner Medullary Collecting Duct cell line (m-IMCD3) spontaneously forms cystic spheroids in 3D culture with a Type 1 collagen/Matrigel extracellular matrix. This process can be stimulated with agents which raise intracellular cAMP and is used as an in vitro model for the formation of cystic structures in the kidneys of patients with ADPKD.
Rat Collagen I (Fisher Scientific) is prepared on ice by neutralising with 1M NaOH and diluting with a 2× volume of DMEM/F12+10% FBS. This is mixed 1:1.1 with ice cold Matrigel (Corning) for coating plates (coating mix), and 1:0.93 with Matrigel for cell plating (plating mix).
The assay is conducted in the wells of a 96-well plate culture dish using a total volume of 130 μL of collagen/Matrigel/DMEM F12-10% FBS suspension in growth media for each matrix plug per individual well. Initially, 30 μL of collagen/Matrigel/DMEM F12-10% FBS (coating mix) is added into the well of a 96 well plate and the collagen is set to a gel by incubating at 37° C. for at least 15 minutes. A second layer of 100 μL collagen/Matrigel suspension (plating mix) containing m-IMCD3 cells (2.75×10^6 m-IMCD3 cells per 96-well plate) is layered over the coating mix and the collagen/Matrigel/cell mix again set to a gel by incubating at 37° C. Cell cultures are maintained at 37° C. in an atmosphere of 5% CO2, 95% air.
Between 18 and 24 h after plating, test compound(s) as DMSO stock solutions [0.1% (v/v) final DMSO concentration] and PGE2 (100 nM final concentration) in DMEM F12-10% FBS are added in quadruplicate wells per condition. Media, together with the test compound and PGE2 are replenished after 2 or 3 days. After 6 days of culture z stack images of the wells are captured using the Nikon Eclipse Ti2-E microscope. Nikon General Analysis software is used to measure the following parameters in each well: the mean cyst area, the number of cysts, and the total cyst area.
PDE4 long form activators inhibited in vitro cyst formation in m-IMCD3 cells. Data are shown in Table 4 as mean cyst area (%), compared to 100% for (DMSO+PGE2) and 0% for DMSO control.
Take `CC(C)(C#N)CC(=O)N1CCc2nc(N3C4CCC3CNC4)sc2C1` [Example 178, 4-(2-(3,8-diazabicyclo[3.2.1]octan-8-yl)-6,7-dihydrothiazolo[5,4-c]pyridin-5(4H)-yl)-2,2-dimethyl-4-oxobutanenitrile]: the activity at 3 µM turned out to be 24%. In the case of `O=C(c1coc2ccccc12)N1CCc2nc(N3C4CCC3CNC4)sc2C1` [Example 187, (2-(3,8-diazabicyclo[3.2.1]octan-8-yl)-6,7-dihydrothiazolo[5,4-c]pyridin-5(4H)-yl)(benzofuran-3-yl)methanone], the activity at 3 µM was -8%. The same measure, in the same setting: then `O=C(C1CCc2ccccc2O1)N1CCc2nc(N3C4CCC3CNC4)sc2C1` (centres unmarked) [Example 181, (2-(3,8-diazabicyclo[3.2.1]octan-8-yl)-6,7-dihydrothiazolo[5,4-c]pyridin-5(4H)-yl)(chroman-2-yl)methanone], with 5%. Take `COC(C(=O)N1CCc2nc(N3C4CCC3CNC4)sc2C1)C1(C)CCCC1` (centres unmarked) [Example 249, 1-(2-(3,8-diazabicyclo[3.2.1]octan-8-yl)-6,7-dihydrothiazolo[5,4-c]pyridin-5(4H)-yl)-2-methoxy-2-(1-methylcyclopentyl)ethan-1-one]: the activity at 3 µM is -5%. `Cc1ccc(C(=O)N2CCc3nc(N4C5CCC4CNC5)sc3C2)cc1` [Example 196, (2-(3,8-diazabicyclo[3.2.1]octan-8-yl)-6,7-dihydrothiazolo[5,4-c]pyridin-5(4H)-yl)(p-tolyl)methanone]: the activity at 3 µM was -1%. Same read-out and setting: the value for `O=C(COc1ccccc1C(F)F)N1CCc2nc(N3C4CCC3CNC4)sc2C1` [Example 173, 1-(2-(3,8-diazabicyclo[3.2.1]octan-8-yl)-6,7-dihydrothiazolo[5,4-c]pyridin-5(4H)-yl)-2-(2-(difluoromethyl)phenoxy)ethan-1-one] was -2%; that for `O=C(c1cccc(OC(F)(F)F)c1)N1CCc2nc(N3C4CCC3CNC4)sc2C1` [Example 205, (2-(3,8-diazabicyclo[3.2.1]octan-8-yl)-6,7-dihydrothiazolo[5,4-c]pyridin-5(4H)-yl)(3-(trifluoromethoxy)phenyl)methanone] was 0%. Regarding `O=C(N1CCc2nc(N3C4CCC3CNC4)sc2C1)C(F)(F)c1ccnc(F)c1` [Example 251, 1-(2-(3,8-diazabicyclo[3.2.1]octan-8-yl)-6,7-dihydrothiazolo[5,4-c]pyridin-5(4H)-yl)-2,2-difluoro-2-(2-fluoropyridin-4-yl)ethan-1-one], the activity at 3 µM is -6%. Still for that read-out and setting: then `O=C(COc1ccccc1OCCO)N1CCc2nc(N3C4CCC3CNC4)sc2C1` [Example 250, 1-(2-(3,8-diazabicyclo[3.2.1]octan-8-yl)-6,7-dihydrothiazolo[5,4-c]pyridin-5(4H)-yl)-2-(2-(2-hydroxyethoxy)phenoxy)ethan-1-one], with 17%.

The same assay, now with this note: Mus musculus, mIMCD3, 144 h, 10 μM; mean cyst area, 100% for (DMSO + PGE2) and 0% for DMSO control; 6 days of culture; read-out: % Cyst area after incubation with 10 μM test compound.
For the compound `O=C(CC(F)(F)F)N1CCc2nc(N3C4CCC3CNC4)sc2C1` [Example 26, 1-(2-(3,8-diazabicyclo[3.2.1]octan-8-yl)-6,7-dihydrothiazolo[5,4-c]pyridin-5(4H)-yl)-3,3,3-trifluoropropan-1-one], the activity at 10 µM was determined as 1%.

Regarding `CN1CC2CCC(C1)N2c1nc2c(s1)CN(C(=O)CC1CCCC1)CC2(C)C` [Example 102, 2-cyclopentyl-1-(7,7-dimethyl-2-(3-methyl-3,8-diazabicyclo[3.2.1]octan-8-yl)-6,7-dihydrothiazolo[5,4-c]pyridin-5(4H)-yl)ethan-1-one], the activity at 10 µM is -3%. Consider `CN1CC2CCC(C1)N2c1nc2c(s1)CN(C(=O)CC1CCC(F)(F)CC1)C2` [Example 84, 2-(4,4-difluorocyclohexyl)-1-(2-(3-methyl-3,8-diazabicyclo[3.2.1]octan-8-yl)-4,6-dihydro-5H-pyrrolo[3,4-d]thiazol-5-yl)ethan-1-one], for which the activity at 10 µM was 1%. As to `CC1(C(=O)N2CCc3nc(N4C5CCC4CNC5)sc3C2)CCCC1` [Example 150, (2-(3,8-diazabicyclo[3.2.1]octan-8-yl)-6,7-dihydrothiazolo[5,4-c]pyridin-5(4H)-yl)(1-methylcyclopentyl)methanone], the activity at 10 µM was determined as 1%. For the compound `O=C(NCc1ccc(C(F)(F)F)cc1)N1CCc2nc(N3C4CCC3CNC4)sc2C1` [Example 56, 2-(3,8-diazabicyclo[3.2.1]octan-8-yl)-N-(4-(trifluoromethyl)benzyl)-6,7-dihydrothiazolo[5,4-c]pyridine-5(4H)-carboxamide], the activity at 10 µM is -6%. For the compound `O=C(CC1CCCC1)N1Cc2sc(N3C4CCC3CNC4)nc2C2(CCOCC2)C1` [Example 266, 1-(2′-(3,8-diazabicyclo[3.2.1]octan-8-yl)-2,3,5,6-tetrahydro-4′H-spiro[pyran-4,7′-thiazolo[5,4-c]pyridin]-5′(6′H)-yl)-2-cyclopentylethan-1-one], the activity at 10 µM stood at 40%.

`CN1CC2CCC(C1)N2c1cc2n(n1)CCN(C(=O)NC1CCC(F)(F)CC1)C2` [Example 85, N-(4,4-difluorocyclohexyl)-2-(3-methyl-3,8-diazabicyclo[3.2.1]octan-8-yl)-6,7-dihydropyrazolo[1,5-a]pyrazine-5(4H)-carboxamide]: the activity at 10 µM is -2%. On the same count and under the same terms, then `CC1(NC(=O)N2CCc3nc(N4C5CCC4CNC5)sc3C2)CCCC1` [Example 125, 2-(3,8-diazabicyclo[3.2.1]octan-8-yl)-N-(1-methylcyclopentyl)-6,7-dihydrothiazolo[5,4-c]pyridine-5(4H)-carboxamide], with -11%; and `O=C(Nc1ccccc1)N1CCc2nc(N3C4CCC3CNC4)sc2C1` [Example 57, 2-(3,8-diazabicyclo[3.2.1]octan-8-yl)-N-phenyl-6,7-dihydrothiazolo[5,4-c]pyridine-5(4H)-carboxamide], with -3%. With `O=C(NC1CCC(F)(F)CC1)N1CCc2nc(N3C4CCC3CNC4)sc2C1` [Example 58, 2-(3,8-diazabicyclo[3.2.1]octan-8-yl)-N-(4,4-difluorocyclohexyl)-6,7-dihydrothiazolo[5,4-c]pyridine-5(4H)-carboxamide], the activity at 10 µM is -3%. With `CC(C)(C)C(=O)N1CCc2nc(N3C4CCC3CNC4)sc2C1` [Example 65, 1-(2-(3,8-diazabicyclo[3.2.1]octan-8-yl)-6,7-dihydrothiazolo[5,4-c]pyridin-5(4H)-yl)-2,2-dimethylpropan-1-one], the activity at 10 µM was -2%. As to `CN(C(=O)N1CCc2nc(N3C4CCC3CNC4)sc2C1)C1CCCC1` [Example 62, 2-(3,8-diazabicyclo[3.2.1]octan-8-yl)-N-cyclopentyl-N-methyl-6,7-dihydrothiazolo[5,4-c]pyridine-5(4H)-carboxamide], the activity at 10 µM amounted to 1%.

On to `CC(C)(Oc1ccccc1)C(=O)N1CCc2nc(N3C4CCC3CNC4)sc2C1` [Example 30, 1-(2-(3,8-diazabicyclo[3.2.1]octan-8-yl)-6,7-dihydrothiazolo[5,4-c]pyridin-5(4H)-yl)-2-methyl-2-phenoxypropan-1-one], for which the activity at 10 µM stood at 1%. The same measure, in the same setting: then `CC1(C)CCC(C(=O)N2CCc3nc(N4C5CCC4CNC5)sc3C2)C1` (centres unmarked) [Example 38, (2-(3,8-diazabicyclo[3.2.1]octan-8-yl)-6,7-dihydrothiazolo[5,4-c]pyridin-5(4H)-yl)(3,3-dimethylcyclopentyl)methanone], with 8%.
